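Test compounds were applied to cells in 96-well plates for 48 hours at 5 doses. GI50 = concentration required for 50% inhibition of growth.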 Calls of active or inactive are those of the source. Rule as the data show it: active = GI50 up to about 1.1 µM and inactive = higher.
Experiments:
Test in all cases: inhibition of tumour cell growth, NCI panel, 48 h
Hs-578T = tested on: Hs-578T
M14 = tested on: M14
HT-29 = tested on: HT-29
NCI-H23 = tested on: NCI-H23
UACC-257 = tested on: UACC-257
UO-31 = tested on: UO-31
K562 = tested on: K562
COLO 205 = tested on: COLO 205
ACHN = tested on: ACHN
OVCAR-4 = tested on: OVCAR-4
NCI-H226 = tested on: NCI-H226
OVCAR-3 = tested on: OVCAR-3
OVCAR-5 = tested on: OVCAR-5
A498 = tested on: A498
NCI-H460 = tested on: NCI-H460
SNB-19 = tested on: SNB-19
A549 = tested on: A549
SNB-75 = tested on: SNB-75
SK-MEL-5 = tested on: SK-MEL-5
UACC-62 = tested on: UACC-62
NCI/ADR-RES = tested on: NCI/ADR-RES
IGROV-1 = tested on: IGROV-1
MCF7 = tested on: MCF7
RXF 393 = tested on: RXF 393
PC-3 = tested on: PC-3
HCT-116 = tested on: HCT-116
SN12C = tested on: SN12C
EKVX = tested on: EKVX
HL-60 = tested on: HL-60
TK-10 = tested on: TK-10
LOX IMVI = tested on: LOX IMVI
NCI-H522 = tested on: NCI-H522
SF-268 = tested on: SF-268
T47D = tested on: T47D
SF-295 = tested on: SF-295
MDA-MB-231 = tested on: MDA-MB-231
OVCAR-8 = tested on: OVCAR-8
SK-OV-3 = tested on: SK-OV-3
SF-539 = tested on: SF-539
SK-MEL-28 = tested on: SK-MEL-28
SW-620 = tested on: SW-620
DU-145 = tested on: DU-145
SR = tested on: SR
CAKI-1 = tested on: CAKI-1
RPMI-8226 = tested on: RPMI-8226
MDA-N = tested on: MDA-N
HCT-15 = tested on: HCT-15
CCRF-CEM = tested on: CCRF-CEM
Malme-3M = tested on: Malme-3M
HOP-92 = tested on: HOP-92
786-0 = tested on: 786-0
KM12 = tested on: KM12
MOLT-4 = tested on: MOLT-4
HCC 2998 = tested on: HCC 2998
MDA-MB-435 = tested on: MDA-MB-435
U-251 = tested on: U-251
BT-549 = tested on: BT-549
HOP-62 = tested on: HOP-62
SK-MEL-2 = tested on: SK-MEL-2

Cc1ccnc2[nH]c(-c3ccccc3)cc(=O)c12
GI50 (Hs-578T): 0.0114 µM (active) | GI50 (M14): 0.00658 µM (active) | GI50 (HT-29): 0.00361 µM (active) | GI50 (NCI-H23): 0.0297 µM (active) | GI50 (UACC-257): 0.0113 µM (active) | GI50 (UO-31): 0.0348 µM (active) | GI50 (K562): 0.00281 µM (active) | GI50 (COLO 205): 0.0039 µM (active) | GI50 (ACHN): 0.0458 µM (active) | GI50 (OVCAR-4): 68.7 µM (inactive) | GI50 (NCI-H226): 0.0246 µM (active) | GI50 (OVCAR-3): 0.00583 µM (active) | GI50 (OVCAR-5): 0.643 µM (active) | GI50 (A498): > 10 µM (inactive) | GI50 (NCI-H460): 0.00682 µM (active) | GI50 (SNB-19): 0.0233 µM (active) | GI50 (A549): 0.0153 µM (active) | GI50 (SNB-75): 0.00621 µM (active) | GI50 (SK-MEL-5): 0.00387 µM (active) | GI50 (UACC-62): 0.00535 µM (active) | GI50 (NCI/ADR-RES): 0.00451 µM (active) | GI50 (IGROV-1): 0.0726 µM (active) | GI50 (MCF7): 0.0398 µM (active) | GI50 (RXF 393): 0.0192 µM (active) | GI50 (PC-3): 0.00548 µM (active) | GI50 (HCT-116): 0.00396 µM (active) | GI50 (SN12C): 0.0277 µM (active) | GI50 (EKVX): 0.3 µM (active) | GI50 (HL-60): 0.00188 µM (active) | GI50 (TK-10): 0.106 µM (active) | GI50 (LOX IMVI): 0.0149 µM (active) | GI50 (NCI-H522): 0.00838 µM (active) | GI50 (SF-268): 0.0341 µM (active) | GI50 (T47D): 42.5 µM (inactive) | GI50 (SF-295): 0.00309 µM (active) | GI50 (MDA-MB-231): 0.0912 µM (active) | GI50 (OVCAR-8): 0.027 µM (active) | GI50 (SK-OV-3): 0.0136 µM (active) | GI50 (SF-539): 0.0191 µM (active) | GI50 (SK-MEL-28): 0.01 µM (active) | GI50 (SW-620): 0.00421 µM (active) | GI50 (DU-145): 0.0313 µM (active) | GI50 (SR): 0.00103 µM (active) | GI50 (CAKI-1): 0.0116 µM (active) | GI50 (RPMI-8226): 0.00731 µM (active) | GI50 (MDA-N): 0.0011 µM (active) | GI50 (HCT-15): 0.00485 µM | GI50 (CCRF-CEM): 0.00589 µM (active) | GI50 (Malme-3M): 0.0092 µM (active) | GI50 (HOP-92): 0.0524 µM (active) | GI50 (786-0): 0.0124 µM (active) | GI50 (KM12): 0.00705 µM (active) | GI50 (MOLT-4): 0.0132 µM (active) | GI50 (HCC 2998): 0.037 µM (active) | GI50 (MDA-MB-435): 0.1 µM (active) | GI50 (U-251): 0.00552 µM (active) | GI50 (BT-549): 19 µM (inactive)

O=C(O)c1c2c(cc3c1CC1(Cc4cc5c(cc4C1=O)CCC5)C3)CCC2 (stereo not given)
GI50 (Hs-578T): > 100 µM (inactive) | GI50 (M14): > 100 µM (inactive) | GI50 (HT-29): > 100 µM (inactive) | GI50 (NCI-H23): 81.1 µM (inactive) | GI50 (UACC-257): 56.6 µM (inactive) | GI50 (UO-31): > 100 µM (inactive) | GI50 (K562): 52.4 µM (inactive) | GI50 (COLO 205): 52.4 µM (inactive) | GI50 (ACHN): 56.4 µM (inactive) | GI50 (OVCAR-4): 52.2 µM (inactive) | GI50 (NCI-H226): > 100 µM (inactive) | GI50 (OVCAR-3): 56.4 µM (inactive) | GI50 (OVCAR-5): > 100 µM (inactive) | GI50 (A498): > 100 µM (inactive) | GI50 (NCI-H460): 71.1 µM (inactive) | GI50 (SNB-19): > 100 µM (inactive) | GI50 (A549): 54.8 µM (inactive) | GI50 (SNB-75): > 100 µM (inactive) | GI50 (SK-MEL-5): > 100 µM (inactive) | GI50 (UACC-62): > 100 µM (inactive) | GI50 (NCI/ADR-RES): > 100 µM (inactive) | GI50 (IGROV-1): > 100 µM (inactive) | GI50 (MCF7): 42.4 µM (inactive) | GI50 (RXF 393): 92.9 µM (inactive) | GI50 (PC-3): > 100 µM (inactive) | GI50 (HCT-116): 87.5 µM (inactive) | GI50 (SN12C): > 100 µM (inactive) | GI50 (EKVX): 87.5 µM (inactive) | GI50 (HL-60): 65.2 µM (inactive) | GI50 (TK-10): > 100 µM (inactive) | GI50 (LOX IMVI): 57.1 µM (inactive) | GI50 (NCI-H522): 76.4 µM (inactive) | GI50 (SF-268): > 100 µM (inactive) | GI50 (HOP-62): > 100 µM (inactive) | GI50 (T47D): 80 µM (inactive) | GI50 (SF-295): > 100 µM (inactive) | GI50 (MDA-MB-231): > 100 µM (inactive) | GI50 (OVCAR-8): > 100 µM (inactive) | GI50 (SK-MEL-2): > 100 µM (inactive) | GI50 (SK-OV-3): > 100 µM (inactive) | GI50 (SF-539): > 100 µM (inactive) | GI50 (SK-MEL-28): 26.9 µM (inactive) | GI50 (SW-620): > 100 µM (inactive) | GI50 (DU-145): 98.2 µM (inactive) | GI50 (SR): 20.7 µM (inactive) | GI50 (RPMI-8226): > 100 µM (inactive) | GI50 (MDA-N): > 100 µM (inactive) | GI50 (HCT-15): 74.1 µM | GI50 (CCRF-CEM): 46.2 µM (inactive) | GI50 (Malme-3M): > 100 µM (inactive) | GI50 (HOP-92): > 100 µM (inactive) | GI50 (786-0): > 100 µM (inactive) | GI50 (KM12): 89.5 µM (inactive) | GI50 (MOLT-4): 50.8 µM (inactive) | GI50 (HCC 2998): 51.9 µM (inactive) | GI50 (MDA-MB-435): > 100 µM (inactive) | GI50 (U-251): 85.9 µM (inactive) | GI50 (BT-549): 86.3 µM (inactive)
